Source: patent US8916607B2, “Use of piperphentonamine or salts thereof in manufacture of medicaments for treating brain diseases” (Guangzhou Municipal Zhongwei Biotechnology Limited Company, priority 2009, dated 2014)
Marks after values point to notes of the source that are not given here.

Key:
[1] = tested on: cerebral ischemia/reperfusion injury in mice; test: focal cerebral ischemia reperfusion injury model in mice (suture method), TTC infarction area; type: in vivo
Experimental: Focal cerebral ischemia reperfusion injury model is made in mice by using suture method, being ischemia for 2 h, then reperfusing for 24 h, and it proves that piperphentonamine hydrochloride has protective effect on ischemia-reperfusion cerebral injury.
Mouse is anesthetized by injecting 10% chloral hydrate (350 mg/kg) in intraperitoneal, being intravenously administered 1 mg/kg, 5 mg/kg piperphentonamine hydrochloride or 20 u/kg coenzyme A, (COA), making the cerebral artery ischemia like as the method of example 6. Pulling out nylon thread from the internal carotid artery after the operation in 2 hours, until the end of the nylon thread is at bifurcation of the common carotid artery. Reperfusing for 24 hours. Except for not inserting a thread, the rest of steps for the false operation group are same as the above-mentioned. After reperfusion for 24 h, decapitating and taking the brain of survived mice, rapidly putting in −20° C. freezer for 5 min, then removing, quickly cutting coronal slices of 2.0 mm thickness from forward to back on the operating table, putting the slices in phosphate buffer solution with 1% TTC immediately, incubating for 30 min in avoiding light at room temperature. Flip brain slices to make them touch staining solution uniformly every 10 minute, and scanning and observing the dyeing results.
The local cerebral ischemia model of mice was established by using thread bolt method, to validate that piperphentonamine acetate has protective effect on experimental cerebral ischemia animal.

[2] = tested on: infective brain edema of rats (pertussis bacteria liquid); test: infective cerebral edema: IL-1β, TNF-α (ELISA) and NO (Griess) in cerebral tissue; type: in vivo, SD rats; details: pretreatment 0.5 mg/kg ip daily for 2 days; rat brain tissue, 4 h
Experimental: Determine the content of IL-1β, TNF-α and NO by using ELISA and Griess method.
Model preparation was same as that of example 4. Piperphentonamine acetate group was intraperitoneally injected with 0.5 mg/kg daily for 2 days 48 h before the injection of pertussis bacterial liquid. Rats in each group were decollated after being injected with bacterial liquid or saline 4 h. ELISA method and Griess method were used to measure the content of IL-1β, TNF-α and NO in brain homogenate of infectious brain edema model of rats.

[3] = tested on: infective brain edema of rats (pertussis bacteria liquid); test: infective cerebral edema by pertussis bacteria liquid: brain water, sodium and potassium ion content; type: in vivo, SD rats; parameters: Na^+ / K^+: unit not given here; details: pretreatment 0.5 mg/kg ip daily for 2 days; 4 h after bacterial liquid
[4] = tested on: cerebral edema of mice caused by closed cerebral trauma; test: closed cerebral trauma model of mice, brain water content; type: in vivo, Kunming mice; details: method as example 2
Experimental: There were 10 mice in each group.
The closed cerebral trauma model of mice being established after fasting for 16 hours, administering intravenously to each group, striping and taking the brain of mouse after 24 hours, weighing the wet weight, and drying at 70° C. for 24 hours, then weighing the dry weight, and calculating brainwater content; the brain water content which is higher than normal values indicates the cerebral edema.
The grouping method, administer method and model preparation were referred to example 2.

[5] = tested on: cultured cerebral neurons; test: NMDA induces neuron injury in primary cultured neurons; type: cell-based, rat; details: drug 50 mmol/L; NMDA 50 mmol/L, 12 h

Nc1ncnc2c1ncn2[C@@H]1O[C@H](COP(=O)(O)OP(=O)(O)OP(=O)(O)O)[C@@H](O)[C@H]1O [ATP, reference compound]
The percentage of infarction area occupied the entire coronal plane (%) ([1]; 5 mg/kg, method as example 7 (example 16)): 20.53 ± 4.82 %

CC(C)(COP(=O)(O)OP(=O)(O)OC[C@H]1O[C@@H](n2cnc3c(N)ncnc32)[C@H](O)[C@@H]1OP(=O)(O)O)[C@@H](O)C(=O)NCCC(=O)NCCS [CoA, coenzyme A, reference compound]
The percentage of infarction area occupied the entire coronal plane (%) ([1]; 20 U/kg iv, ischemia 2 h, reperfusion 24 h): 20.53 ± 4.82 %

CC1=NN(c2ccccc2)C(=O)C1 [Edaravone Injection, edaravone, reference compound]
The percentage of infarction area occupied the entire coronal plane (%) ([1]; 3 mg/kg, method as example 7 (example 16)): 18.43 ± 3.56 %

CC(=O)O.CN(CCC(=O)/C=C/c1ccc(O)cc1)CCc1ccc2c(c1)OCO2 [piperphentonamine acetate]
The percentage of infarction area occupied the entire coronal plane (%) ([1]; 4 mg/kg, thread bolt method (example 15)): 18.12 ± 2.64^ΔΔ % | IL-1β [2]: 197.1 ± 27.1^2)3) pg/g | NO [2]: 53.3 ± 3.71^2)3) nmol/g | TNF-α [2]: 309.3 ± 83.5^2)3) pg/g | K^+ [3]: 396.6 ± 39.9 | Na^+ [3]: 164.7 ± 23.7 | brain water content (%) [3]: 63.44 ± 0.4^3) %

CN(CCC(=O)/C=C/c1ccc(O)cc1)CCc1ccc2c(c1)OCO2.O=C(O)CC(O)(CC(=O)O)C(=O)O [piperphentonamine citrate]
The percentage of infarction area occupied the entire coronal plane (%) ([1]; treated group (C), dose not given, model as example 7): 16.88 ± 2.48**^ΔΔ % | brain water content (%) ([4]; 2 mg/kg): 80.32 ± 7.72 % | brain water content (%) ([4]; 4 mg/kg): 78.84 ± 9.48 % | brain water content (%) ([4]; 8 mg/kg): 75.28 ± 6.48 %

Ganglioside [GM, reference compound]
morphological change of culture neuron (protection function) [5]: equal to the one of piperphentonamine hydrochloride 10 mmol/L | mortality [5]: 40%
